{"source": "PubChem BioAssay AID488966", "about": "(Southern Research Specialized Biocontainment Screening …, 2010)", "system": "E. coli UTI89 K1F phage lysis, alamar blue, 2 h", "assay": "protection from phage-mediated lysis, alamar blue read-out – E. coli UTI89, K1F phage, bacterial capsule biogenesis inhibitors (AID 488966);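 further: capsule biogenesis inhibitors block K1F phage lysis so surviving cells raise fluorescence; higher fluorescence means more inhibition of phage lysis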", "data": [{"compound": "NC(N)=N/N=C/c1ccc(OCc2ccccc2)cc1", "values": [{"measurement": "IC50", "result": 60.8, "unit": "µM"}]}, {"compound": "N=C(N)c1ccc(/C=C/c2ccc(C(=N)N)cc2O)cc1", "values": [{"measurement": "IC50", "result": 11.1, "unit": "µM"}]}, {"compound": "O=C(COc1ccc(Cl)cc1Cl)Nc1ccc(C(=O)Nc2ccccc2C(=O)O)cc1", "values": [{"measurement": "IC50", "result": 74.6, "unit": "µM"}]}, {"compound": "CCC1=NN2C(=N)/C(=C\\c3ccc(SCc4ccco4)o3)C(=O)N=C2S1", "values": [{"measurement": "IC50", "result": 68.7, "unit": "µM"}]}, {"compound": "O=C(Nc1ccncc1)c1ccc2ncsc2c1", "values": [{"measurement": "IC50", "result": 123, "unit": "µM"}]}, {"compound": "O=C(ONc1ccc(N=NC(=O)c2ccccc2O)cc1)c1ccccc1", "values": [{"measurement": "IC50", "result": 72.7, "unit": "µM"}]}, {"compound": "CCN(CCCl)c1cc(CN(C)C)cc(NC(=O)c2ccc(C(=O)Nc3cc(CN(C)C)cc(N(CC)CCCl)c3)cc2)c1", "values": [{"measurement": "IC50", "result": 118, "unit": "µM"}]}, {"compound": "O=C(Nc1cccc(C2=NCCN2)c1)Nc1cccc(C2=NCCN2)c1", "values": [{"measurement": "IC50", "result": 251, "unit": "µM"}]}, {"compound": "N=c1n(CCN2CCCC2)c2ccccc2n1CC(O)c1ccc(Cl)c(Cl)c1", "note": "(stereo not given)", "values": [{"measurement": "IC50", "result": 140, "unit": "µM"}]}, {"compound": "CCN(CC)c1ccc2c(-c3ccc(S(=O)(=O)O)cc3S(=O)(=O)[O-])c3ccc(=[N+](CC)CC)cc-3oc2c1", "values": [{"measurement": "IC50", "result": 30.6, "unit": "µM"}]}, {"compound": "CC1(C(=O)O)CCC(C(=O)Nc2ccc3ccccc3c2)C1(C)C", "note": "(stereo not given)", "values": [{"measurement": "IC50", "result": 178, "unit": "µM"}]}, {"compound": "Cc1cccc(C)c1NC(=O)C[N+](C)(C)CC(O)COc1cccc2ccccc12", "note": "(stereo not given)", "values": [{"measurement": "IC50", "result": 91, "unit": "µM"}]}, {"compound": "Cc1ccccc1NC(=NCCCN1CC1)Nc1ccccc1C", "values": [{"measurement": "IC50", "result": 286, "unit": "µM"}]}, {"compound": "CCCOc1ccc(C(=O)C(CCC(CNCC)C(=O)c2ccc(OCCC)cc2)CNCC)cc1", "note": "(stereo not given)", "values": [{"measurement": "IC50", "result": 132, "unit": "µM"}]}, {"compound": "O=C1c2c(O)ccc(O)c2C(=O)c2c(NCCNCCO)ccc(NCCNCCO)c21", "values": [{"measurement": "IC50", "result": 211, "unit": "µM"}]}, {"compound": "O=C(NCc1cc([N+](=O)[O-])ccc1O)c1cccnc1Sc1ccccc1Cl", "values": [{"measurement": "IC50", "result": 175, "unit": "µM"}]}, {"compound": "Cc1ccc(C2c3c(oc4cc(C)c(C)cc4c3=O)C(=O)N2CCCN2CCOCC2)cc1", "note": "(stereo not given)", "values": [{"measurement": "IC50", "result": 228, "unit": "µM"}]}, {"compound": "C=CCOc1ccc(C2c3c(oc4ccccc4c3=O)C(=O)N2CCCN2CCOCC2)cc1", "note": "(stereo not given)", "values": [{"measurement": "IC50", "result": 200, "unit": "µM"}]}, {"compound": "COc1ccc2nc(NC(=O)c3ccc(Br)s3)sc2c1", "values": [{"measurement": "IC50", "result": 59.7, "unit": "µM"}]}, {"compound": "O=C(NCc1cc([N+](=O)[O-])ccc1O)c1cccnc1Sc1ccccc1", "values": [{"measurement": "IC50", "result": 128, "unit": "µM"}]}, {"compound": "CCN(CC)CCCNc1nc2ccccc2c2[nH]c3ccc(OC)cc3c12", "values": [{"measurement": "IC50", "result": 86.6, "unit": "µM"}]}, {"compound": "COc1cc(/C=N/N=C(N)N)ccc1OCc1ccccc1Cl", "values": [{"measurement": "IC50", "result": 56.4, "unit": "µM"}]}, {"compound": "N=C(N)SCCc1cccc(CCSC(=N)N)c1", "values": [{"measurement": "IC50", "result": 114, "unit": "µM"}]}, {"compound": "O=C1C2(Cl)C3(Cl)C4(Cl)C(Cl)(Cl)C5(Cl)C3(Cl)C1(Cl)C5(Cl)C24Cl", "note": "(stereo not given)", "values": [{"measurement": "IC50", "result": 74.8, "unit": "µM"}]}, {"compound": "Cc1cc(C)c(NC(=O)C[N+](C)(C)CC(O)COc2cccc3ccccc23)c(C)c1", "note": "(stereo not given)", "values": [{"measurement": "IC50", "result": 82.2, "unit": "µM"}]}]}
